The values below come from patent publication US20260191969A1, “COMPOSITION CONTAINING ANIONIC LONG-CHAIN LIPID TO BE USED FOR ATTENUATING SKIN BARRIER FUNCTION, AND DISPERSION CONTAINING COMPLEX COMPRISING CATIONIC LONG-CHAIN LIPID, ANIONIC LONG-CHAIN LIPID AND DRUG DISPERSED THEREIN” (KYUSHU UNIVERSITY, NATIONAL UNIVERSITY CORPORATION, priority 2022, published 2026).

The test system of this data set is SNORA23. The experiment in a line: knock-down of target RNA after transdermal or subcutaneous administration to tumor-bearing mice (RT-PCR). The class given is in vivo. Particulars: for expression level of the target RNA (SNORA23): 250 μg ASO in 50 μL, two days after, skin, subcutaneous tumor, liver, FIG. 34. The procedure: A formulation targeting SNORA23 was prepared. To mice, 3×10^6 ES2 ovarian carcinoma cells were subcutaneously transplanted, and the formation of subcutaneous tumor was checked 1 week after that. To the top (1 cm×1 cm) of a tumor or into the periphery of a tumor, 50 μL of hybrid particles containing 250 μg of ASO targeting SNORA23 was applied or subcutaneously injected. For the transdermal administration group, protective tape was wound once around the trunk including the administration site.
Two days after the administration, the skin, subcutaneous tumor, and liver were isolated, and total RNA was extracted. The level of targeted RNA (SNORA23) was quantified, and the presence or absence of reduction in the expression level was examined by an RT-PCR method.

Strand notation (5' to 3'): a small letter for the sugar, then the base; units joined by * are phosphorothioate-linked, units joined directly phosphodiester-linked; [ ] holds rarer units or linkages, { } end groups; capitals alone tell only the bases. l = locked nucleic acid (LNA); [5mC] = 5-methylcytosine; d = 2'-deoxy (DNA)

Take “5′-GAAacctatgmCAmCa-3′ (lG*lA*lA*dA*dC*dC*dT*dA*dT*dG*l[5mC]*lA*l[5mC]*dA) [ASO]”: the “knock-down of target RNA in the liver” value (irrespective of the route of administration, suggests migration of ASO into blood) is “knock-down effect”. Moreover, the “expression level of the target RNA (SNORA23)” value is, setting by setting: (subcutaneous administration) “Reduction of the expression level of the target RNA was induced”; (transdermal administration) “Reduction of the expression level of the target RNA was induced”.
